Laboratory results reported in patent publication US9801901B2, “Alginate oligomers for use in overcoming multidrug resistance in bacteria” (priority 2009, dated 2017).
Converted amounts (≈) assume the structure as drawn. Where two headings read alike, the source gives them in different places. Marks after values point to notes of the source that are not given here.

Tests used:
[1] = system: Acinetobacter lwoffii (6056, V22); experiment: MIC-assay, Mueller-Hinton broth with G-block alginate, 384-well, OD600
[2] = system: V12 5725 (Wales) Klebsiella pneumoniae; experiment: MIC assay, CAMHB with alginate oligomer, no visible growth; type: cell-based; settings: Table 5, V12 MDR Kleb pneu
[3] = system: PA01 Pseudomonas aeruginosa ATCC 15692; experiment: MIC assay, two-fold antibiotic dilutions in CAMHB with alginate oligomer, no visible growth; type: cell-based; settings: Pseudomonas aeruginosa, ATCC15692, Table 1, PA01, read-out: MIC
[4] = system: Acinetobacter lwoffii (Egypt, V10); experiment: MIC-assay, Mueller-Hinton broth with G-block alginate, 384-well, OD600
[5] = system: Burkholderia cepacia (1322, V23); experiment: as above
[6] = system: Pseudomonas aeruginosa ATCC 39324, mucoid type strain (R79); experiment: MIC assay, CAMHB with alginate oligomer, no visible growth; type: cell-based; settings: Pseudomonas aeruginosa, ATCC39324, Table 1, R79, read-out: MIC
[7] = system: Burkholderia cepacia (LMG18941, ATCC-BAA-246); experiment: MIC-assay, Mueller-Hinton broth with G-block alginate, 384-well, OD600
[8] = system: strains of Klebsiella pneumoniae displaying MDR phenotypes; experiment: MIC-assay, Mueller-Hinton broth with G-block alginate, 384-well, OD600 (Table 10); type: cell-based; settings: read-out: MIC
Text: Minimum inhibitory concentration (MICs) of different antibiotics for strains of Klebsiella pneumoniae displaying MDR phenotypes in the presence of varying concentrations of OligoCF-5/20 (0-10%). (MIC values are expressed in μg ml^−1).

[9] = system: Pseudomonas aeruginosa MDR R22 from China (V1); experiment: MIC assay, CAMHB with alginate oligomer, no visible growth; type: cell-based; settings: for MIC: Pseudomonas aeruginosa, Table 1, V1 MDR R22 PA, read-out: MIC
Text: The study described in Example 1 was repeated with the following strains of bacteria and antibiotics as detailed in Tables 4, 5 and 6.

[10] = system: Acinetobacter baumannii (MDR ACB, Libya, V4); experiment: MIC-assay, Mueller-Hinton broth with G-block alginate, 384-well, OD600
[11] = system: Staphylococcus aureus (MRSA) U50; experiment: MIC-assay, Mueller-Hinton broth with G-block alginate, 384-well, OD600 (Table 12); type: cell-based; settings: MRSA 1040s, U50 MDR, read-out: MIC
Text: (§1) Minimum inhibitory concentration (MICs) of different antibiotics for strains of Streptococcus oralis and Staphylococcus aureus (MRSA) displaying MDR phenotypes in the presence of varying concentrations of OligoCF-5/20 (0-10%). (MIC values are expressed in μg ml^−1).

[12] = system: Streptococcus oralis; experiment: as above; type: cell-based; settings: Streptococcus oralis (5610, V17) MDR
Text: as §1

[13] = system: Acinetobacter baumannii (Egypt, V9); experiment: MIC-assay, Mueller-Hinton broth with G-block alginate, 384-well, OD600
[14] = system: V10 (Egypt) Acinetobacter lwoffii; experiment: MIC assay, CAMHB with alginate oligomer, no visible growth; type: cell-based; settings: Table 5, V10 MDR Acin. lwoff
[15] = system: Pseudomonas aeruginosa CFA 24-1, clinical mucoid strain (R80); experiment: as above; type: cell-based; settings: Pseudomonas aeruginosa, Table 1, R80, read-out: MIC
[16] = Table 9, G-block (OligoCF-5/20) 0%
[17] = Table 9, G-block (OligoCF-5/20) 2%
[18] = Table 9, G-block (OligoCF-5/20) 6%
[19] = Table 9, G-block (OligoCF-5/20) 10%
[20] = Klebsiella pneumoniae, OligoCF-5/20 0G, read-out: MIC

O=C(O)c1cn(C2CC2)c2cc(N3CCNCC3)c(F)cc2c1=O [Ciprofloxacin]
MIC [1, 16]: < 2 µg/mL
MIC [1, 17]: < 2 µg/mL
MIC [1, 18]: < 2 µg/mL
MIC [1, 19]: < 2 µg/mL
MIC [2, 20]: 64 µg/mL (≈ 193 µM)
MIC ([2]; OligoCF-5/20 +2% G): 64 µg/mL (≈ 193 µM)
MIC ([2]; OligoCF-5/20 +6% G): 256^‡ μg/ml
MIC ([2]; OligoCF-5/20 +10% G): 256^‡ μg/ml
MIC ([3]; OligoCF-5/20 +2% G): 0.0625 µg/mL (≈ 0.189 µM)
MIC ([3]; OligoCF-5/20 +6% G): 0.0625 µg/mL (≈ 0.189 µM)
MIC ([3]; OligoCF-5/20 +10% G): 0.0312 µg/mL (≈ 0.0943 µM)
MIC [4, 16]: 0.063 µg/mL (≈ 0.19 µM)
MIC [4, 17]: 0.031 µg/mL (≈ 0.0936 µM)
MIC [4, 18]: 0.031 µg/mL (≈ 0.0936 µM)
MIC [4, 19]: 0.031 µg/mL (≈ 0.0936 µM)
MIC ([5]; Table 8, G-block (OligoCF-5/20) 0%): > 8 µg/mL
MIC ([5]; Table 8, G-block (OligoCF-5/20) 2%): > 8 µg/mL
MIC ([5]; Table 8, G-block (OligoCF-5/20) 6%): > 8 µg/mL
MIC ([5]; Table 8, G-block (OligoCF-5/20) 10%): > 8 µg/mL
MIC ([6]; OligoCF-5/20 +2% G): 0.0625 µg/mL (≈ 0.189 µM)
MIC ([6]; OligoCF-5/20 +6% G): 0.0312 µg/mL (≈ 0.0943 µM)
MIC ([6]; OligoCF-5/20 +10% G): 0.0312 µg/mL (≈ 0.0943 µM)
MIC ([7]; ATCCBAA246|LMG18941, Table 8, G-block (OligoCF-5/20) 0%): > 8 µg/mL
MIC ([7]; ATCCBAA246|LMG18941, Table 8, G-block (OligoCF-5/20) 2%): > 8 µg/mL
MIC ([7]; ATCCBAA246|LMG18941, Table 8, G-block (OligoCF-5/20) 6%): > 8 µg/mL
MIC ([7]; ATCCBAA246|LMG18941, Table 8, G-block (OligoCF-5/20) 10%): > 8 µg/mL
MIC ([8]; Klebsiella pneumoniae (5712, Wales, V12) MDR, G-block (OligoCF-5/20) 0%): > 8 µg/mL
MIC ([8]; Klebsiella pneumoniae (5712, Wales, V12) MDR, G-block (OligoCF-5/20) 2%): > 8 µg/mL
MIC ([8]; Klebsiella pneumoniae (5712, Wales, V12) MDR, G-block (OligoCF-5/20) 6%): > 8 µg/mL
MIC ([8]; Klebsiella pneumoniae (5712, Wales, V12) MDR, G-block (OligoCF-5/20) 10%): > 8 µg/mL
MIC ([8]; Klebsiella pneumoniae (IR25, India, V6) MDR, G-block (OligoCF-5/20) 2%): 64 µg/mL (≈ 193 µM)
MIC ([8]; Klebsiella pneumoniae (IR25, India, V6) MDR, G-block (OligoCF-5/20) 6%): 64 µg/mL (≈ 193 µM)
MIC ([8]; Klebsiella pneumoniae (IR25, India, V6) MDR, G-block (OligoCF-5/20) 10%): 64 µg/mL (≈ 193 µM)
MIC ([8]; Klebsiella pneumoniae (K3, India, V8) MDR, G-block (OligoCF-5/20) 0%): 32 µg/mL (≈ 96.6 µM)
MIC ([8]; Klebsiella pneumoniae (K3, India, V8) MDR, G-block (OligoCF-5/20) 2%): 32 µg/mL (≈ 96.6 µM)
MIC ([8]; Klebsiella pneumoniae (K3, India, V8) MDR, G-block (OligoCF-5/20) 6%): > 1020 µg/mL
MIC ([8]; Klebsiella pneumoniae (K3, India, V8) MDR, G-block (OligoCF-5/20) 10%): > 1020 µg/mL
MIC ([9]; OligoCF-5/20 0G): 16 µg/mL (≈ 48.3 µM)
MIC ([9]; OligoCF-5/20 +2% G): 16 µg/mL (≈ 48.3 µM)
MIC ([9]; OligoCF-5/20 +6% G): 8 µg/mL (≈ 24.1 µM)
MIC ([9]; OligoCF-5/20 +10% G): 4 µg/mL (≈ 12.1 µM)
change of MIC in combination with azithromycin by alginate oligomer ([9]; Table 3, MDR R22 PA strain): reduced
MIC [10, 16]: 4 µg/mL (≈ 12.1 µM)
MIC [10, 17]: 1 µg/mL (≈ 3.02 µM)
MIC [10, 18]: 1 µg/mL (≈ 3.02 µM)
MIC [10, 19]: 0.5 µg/mL (≈ 1.51 µM)
MIC ([11]; G-block (OligoCF-5/20) 0%): 32 µg/mL (≈ 96.6 µM)
MIC ([11]; G-block (OligoCF-5/20) 2%): 32 µg/mL (≈ 96.6 µM)
MIC ([11]; G-block (OligoCF-5/20) 6%): > 1020 µg/mL
MIC ([11]; G-block (OligoCF-5/20) 10%): > 1020 µg/mL
MIC ([12]; G-block (OligoCF-5/20) 0%, read-out: MIC): 32 µg/mL (≈ 96.6 µM)
MIC ([12]; G-block (OligoCF-5/20) 2%): < 0.0625 µg/mL
MIC ([12]; G-block (OligoCF-5/20) 6%, read-out: MIC): 2 µg/mL (≈ 6.04 µM)
MIC ([12]; G-block (OligoCF-5/20) 10%, read-out: MIC): 2 µg/mL (≈ 6.04 µM)
MIC [13, 16]: > 8 µg/mL
MIC [13, 17]: > 8 µg/mL
MIC [13, 18]: 8 µg/mL (≈ 24.1 µM)
MIC [13, 19]: 8 µg/mL (≈ 24.1 µM)

C[C@@H](O)[C@H]1C(=O)N2C(C(=O)O)=C(S[C@@H]3CN[C@H](C(=O)N(C)C)C3)[C@H](C)[C@H]12 [Meropenem]
MIC [2, 20]: < 0.25 µg/mL
MIC ([2]; OligoCF-5/20 +2% G): <0.25 µg/mL
MIC ([2]; OligoCF-5/20 +6% G): <0.25 µg/mL
MIC ([2]; OligoCF-5/20 +10% G): <0.25 µg/mL
MIC ([3]; OligoCF-5/20 0G): 2 µg/mL (≈ 5.22 µM)
MIC ([3]; OligoCF-5/20 +2% G): 2 µg/mL (≈ 5.22 µM)
MIC ([3]; OligoCF-5/20 +6% G): < 1 µg/mL
MIC ([3]; OligoCF-5/20 +10% G): < 1 µg/mL
MIC ([6]; OligoCF-5/20 0G): < 1 µg/mL
MIC ([6]; OligoCF-5/20 +2% G): < 1 µg/mL
MIC ([6]; OligoCF-5/20 +6% G): < 1 µg/mL
MIC ([6]; OligoCF-5/20 +10% G): < 1 µg/mL
MIC ([14]; Acinetobacter lwoffii, OligoCF-5/20 0G, read-out: MIC): 1 µg/mL (≈ 2.61 µM)
MIC ([14]; OligoCF-5/20 +2% G): 0.5^† μg/ml
MIC ([14]; OligoCF-5/20 +6% G): <0.25^† μg/ml
MIC ([14]; OligoCF-5/20 +10% G): <0.25^† μg/ml
MIC ([9]; OligoCF-5/20 0G): 32 µg/mL (≈ 83.4 µM)
MIC ([9]; OligoCF-5/20 +2% G): 32 µg/mL (≈ 83.4 µM)
MIC ([9]; OligoCF-5/20 +6% G): 16 µg/mL (≈ 41.7 µM)
MIC ([9]; OligoCF-5/20 +10% G): 4 µg/mL (≈ 10.4 µM)
MIC ([15]; OligoCF-5/20 0G): < 1 µg/mL
MIC ([15]; OligoCF-5/20 +2% G): < 1 µg/mL
MIC ([15]; OligoCF-5/20 +6% G): < 1 µg/mL
MIC ([15]; OligoCF-5/20 +10% G): < 1 µg/mL
